From ChEMBL document CHEMBL5729129, “Apoptosis signal-regulating kinase 1 (ASK 1) inhibitor compounds” (2022)

Legend:
[1] = target: T1, Lysyl oxidase homolog 2 (Homo sapiens, UniProt Q9Y4K0); assay: Amine Oxidase Activity Assay: Table 4: LOXL2 amine oxidase activity was evaluated by measuring Amplex Red fluorescence using 10-20× concentrated conditioned media from CHO cells stably expressing human LOXL2. To assay for amine oxidase activity, 10 μL of the concentrated conditioned media was incubated with 2 μL of test compound in DMSO and 73 μL Assay Buffer (50 mM Borate Buffer, pH8) for 2 h at 37° C. After the 2 h incubation, 5 μL of 10 mM 1,5-Diaminopentane (DAP) diluted in Assay Buffer and 10 μL of Amplex Red Mix (8.5 μL Assay Buffer+0.5 μL of 10 mM Amplex Red+1 μL of 500 U/ml Horseradish Peroxidase) were added and the plate mixed and immediately placed on the FlexStation for fluorescence measurements. Fluorescence was read in kinetic mode every 2 min for 0.5-1 hour at excitation=544 and emission=590. The amine oxidase activity was calculated from the slope of the linear portion of the curve. Wells containing vehicle (DMSO) represented maximum activity and were set to 0% inhibition and wells containing 100 μM βAPN (3-aminopropionitrile) represented no activity and were set to 100% inhibition.
T1 sequence (Q9Y4K0 whole entry): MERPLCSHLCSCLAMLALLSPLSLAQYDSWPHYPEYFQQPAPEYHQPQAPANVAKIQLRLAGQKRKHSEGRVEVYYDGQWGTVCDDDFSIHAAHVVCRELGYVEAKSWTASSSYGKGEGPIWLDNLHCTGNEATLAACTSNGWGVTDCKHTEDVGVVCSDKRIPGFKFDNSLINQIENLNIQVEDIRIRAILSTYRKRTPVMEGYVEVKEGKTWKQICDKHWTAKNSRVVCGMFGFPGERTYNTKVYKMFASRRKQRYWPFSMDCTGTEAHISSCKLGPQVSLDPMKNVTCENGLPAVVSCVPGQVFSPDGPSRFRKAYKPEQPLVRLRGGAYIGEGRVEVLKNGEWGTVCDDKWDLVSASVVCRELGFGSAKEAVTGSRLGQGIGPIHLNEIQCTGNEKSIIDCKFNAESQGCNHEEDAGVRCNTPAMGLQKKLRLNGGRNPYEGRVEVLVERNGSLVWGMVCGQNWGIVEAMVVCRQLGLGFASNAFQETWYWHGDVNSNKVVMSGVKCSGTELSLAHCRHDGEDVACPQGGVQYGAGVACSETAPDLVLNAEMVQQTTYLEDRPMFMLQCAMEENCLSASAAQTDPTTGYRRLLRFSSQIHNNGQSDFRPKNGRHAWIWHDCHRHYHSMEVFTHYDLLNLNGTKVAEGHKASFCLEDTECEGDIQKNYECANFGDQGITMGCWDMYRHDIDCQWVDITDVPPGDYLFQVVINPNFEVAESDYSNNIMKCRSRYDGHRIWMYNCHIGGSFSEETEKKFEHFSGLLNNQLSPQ

[2] = target: T2, Mitogen-activated protein kinase kinase kinase 5 (Homo sapiens, UniProt Q99683); assay: ADP-Glo Assay: Table 3: The ability of test compounds to inhibit ASK1 kinase activity was determined using the luminescent ADP-Glo™ Kinase Assay and Myelin Basic Protein (MBP) as a substrate (Promega Corporation, Madison, Wis.). During the kinase reaction, ASK1 utilizes ATP and generates ADP. The remaining ATP is then depleted by addition of the ADP-Glo™ reagent which also terminates the reaction. Subsequent addition of the Kinase Detection Reagent converts the ADP that was produced during the kinase reaction to ATP, and this newly synthesized ATP is converted to light using the luciferase/luciferin reactions. The assay was performed according to the manufacturer's instructions. Briefly, purified, recombinant ASK1 (amino acids 649-946) (10-20 ng/well) was added to a 384-well, F bottom, small volume, HIbase, white plate (Greiner Bio-One, Monroe, N.C. #784075) containing 1-2 μL 5× test compound or vehicle control (diluted 1:20 from a 100% DMSO stock solution into 1× Reaction Buffer A). The enzyme was allowed to pre-incubate with test compound from 15-120 min at 30° C. before the addition of the ATP/substrate mix (final concentrations of 50 μM ATP+250 ng MBP in 1× Reaction Buffer A). The mixture was then incubated at room temperature for 40 min before the addition of ADP-Glo™ reagent and a second 40 minute room temperature incubation. […]
T2 sequence (Q99683 whole entry): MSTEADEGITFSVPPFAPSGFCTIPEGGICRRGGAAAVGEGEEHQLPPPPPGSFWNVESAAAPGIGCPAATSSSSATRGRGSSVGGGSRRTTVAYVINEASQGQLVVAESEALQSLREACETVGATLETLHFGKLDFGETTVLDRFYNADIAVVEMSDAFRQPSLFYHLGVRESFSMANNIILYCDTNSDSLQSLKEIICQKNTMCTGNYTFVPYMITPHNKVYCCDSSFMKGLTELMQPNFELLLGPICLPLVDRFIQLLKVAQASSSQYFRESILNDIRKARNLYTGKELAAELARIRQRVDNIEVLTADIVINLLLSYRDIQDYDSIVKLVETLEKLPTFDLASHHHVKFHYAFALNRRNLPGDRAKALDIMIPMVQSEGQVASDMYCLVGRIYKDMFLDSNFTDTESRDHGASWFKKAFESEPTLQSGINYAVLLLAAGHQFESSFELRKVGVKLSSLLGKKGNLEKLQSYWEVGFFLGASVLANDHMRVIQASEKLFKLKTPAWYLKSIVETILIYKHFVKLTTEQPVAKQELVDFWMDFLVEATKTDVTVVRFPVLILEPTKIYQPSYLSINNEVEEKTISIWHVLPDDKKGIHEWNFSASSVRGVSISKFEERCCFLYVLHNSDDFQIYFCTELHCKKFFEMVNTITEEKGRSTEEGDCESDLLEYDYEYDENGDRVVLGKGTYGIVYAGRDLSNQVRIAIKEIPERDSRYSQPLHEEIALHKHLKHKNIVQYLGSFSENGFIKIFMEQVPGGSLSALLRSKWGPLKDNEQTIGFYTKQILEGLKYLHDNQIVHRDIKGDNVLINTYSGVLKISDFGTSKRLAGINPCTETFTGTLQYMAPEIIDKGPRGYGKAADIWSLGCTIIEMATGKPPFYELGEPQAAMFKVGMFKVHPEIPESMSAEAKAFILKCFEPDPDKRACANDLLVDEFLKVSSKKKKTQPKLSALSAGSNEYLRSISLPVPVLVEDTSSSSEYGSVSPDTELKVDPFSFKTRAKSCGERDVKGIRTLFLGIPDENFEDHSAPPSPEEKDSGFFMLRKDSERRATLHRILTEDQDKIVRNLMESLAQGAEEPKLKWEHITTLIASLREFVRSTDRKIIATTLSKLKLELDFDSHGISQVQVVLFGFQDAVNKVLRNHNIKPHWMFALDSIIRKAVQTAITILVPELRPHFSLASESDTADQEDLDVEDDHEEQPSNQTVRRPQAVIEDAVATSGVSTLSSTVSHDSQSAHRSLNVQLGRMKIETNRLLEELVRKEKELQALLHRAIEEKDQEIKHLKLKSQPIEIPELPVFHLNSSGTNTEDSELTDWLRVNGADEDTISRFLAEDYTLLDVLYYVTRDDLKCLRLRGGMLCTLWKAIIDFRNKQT

IC50 [1]: < 300 nM
IC50 [2]: > 1000 nM
Compound: NCc1cc(Oc2ccnc(C(=O)Nc3cccc(-c4nncn4C4CC4)c3)c2)nc(C(F)(F)F)c1
